Data as given in the NIST ThermoML archive (doi:10.1021/je030167i).

Key:
[1] = 101.3 kPa, Liquid
[2] = xn = mol fraction of the nth substance listed; settings: 101.3 kPa, Liquid

CC(C)CCl [1-chloro-2-methylpropane]
[1]
Settings | kinematic viscosity [m2/s] | mass density [kg/m3]
298.15 K | 4.92e-07 | 870.93
313.15 K | 4.29e-07 | 853.51

CC(C)CCl [1-chloro-2-methylpropane] + CC1CCCO1
[2]
Settings | kinematic viscosity, 298.15 K [m2/s] | kinematic viscosity, 313.15 K [m2/s] | mass density, 298.15 K [kg/m3] | mass density, 313.15 K [kg/m3]
x1 = 0.0484 | 5.56e-07 | 4.88e-07 | 850.43 | 834.97
x1 = 0.0999 | 5.52e-07 | 4.85e-07 | 852.07 | 836.22
x1 = 0.1962 | 5.44e-07 | 4.78e-07 | 854.44 | 838.53
x1 = 0.3105 | 5.35e-07 | 4.7e-07 | 857.3 | 841.23
x1 = 0.4006 | 5.29e-07 | 4.65e-07 | 859.25 | 843.09
x1 = 0.4775 | 5.23e-07 | 4.6e-07 | 860.99 | 844.5
x1 = 0.6006 | 5.15e-07 | 4.52e-07 | 863.58 | 846.94
x1 = 0.7031 | 5.08e-07 | 4.46e-07 | 865.6 | 848.88
x1 = 0.8026 | 5.03e-07 | 4.4e-07 | 867.49 | 850.49
x1 = 0.9059 | 4.97e-07 | 4.34e-07 | 869.22 | 852.11
x1 = 0.9506 | 4.95e-07 | 4.32e-07 | 870.2 | 852.87
x1 = 1 | 4.92e-07 | 4.29e-07 | 870.93 | 853.51

CCCCCl [1-chlorobutane]
[1]
Settings | kinematic viscosity [m2/s] | mass density [kg/m3]
298.15 K | 4.78e-07 | 880.62
313.15 K | 4.21e-07 | 863.86

CCCCCl [1-chlorobutane] + CC1CCCO1
[2], x1 = 1
Settings | kinematic viscosity [m2/s] | mass density [kg/m3]
298.15 K | 4.78e-07 | 880.62
313.15 K | 4.21e-07 | 863.86

CC(C)(C)Cl [2-chloro-2-methylpropane]
[1], 298.15 K
Settings | kinematic viscosity [m2/s] | mass density [kg/m3]
– | 5.66e-07 | 835.75

CC(C)(C)Cl [2-chloro-2-methylpropane] + CC1CCCO1
[2], 298.15 K
Settings | kinematic viscosity [m2/s] | mass density [kg/m3]
x1 = 0.0481 | 5.59e-07 | 849.09
x1 = 0.0972 | 5.57e-07 | 848.97
x1 = 0.196 | 5.55e-07 | 848.4
x1 = 0.2907 | 5.55e-07 | 847.61
x1 = 0.3874 | 5.54e-07 | 846.54
x1 = 0.4878 | 5.54e-07 | 845.21
x1 = 0.5888 | 5.55e-07 | 843.72
x1 = 0.7 | 5.57e-07 | 842.04
x1 = 0.7912 | 5.59e-07 | 840.61
x1 = 0.8945 | 5.62e-07 | 838.65
x1 = 0.9474 | 5.63e-07 | 837.24
x1 = 1 | 5.66e-07 | 835.75

CCC(C)Cl (configuration not stated) [2-chlorobutane]
[1]
Settings | kinematic viscosity [m2/s] | mass density [kg/m3]
298.15 K | 4.54e-07 | 867.31
313.15 K | 3.97e-07 | 850.23

CCC(C)Cl (configuration not stated) [2-chlorobutane] + CC1CCCO1
[2]
Settings | kinematic viscosity, 298.15 K [m2/s] | kinematic viscosity, 313.15 K [m2/s] | mass density, 298.15 K [kg/m3] | mass density, 313.15 K [kg/m3]
x1 = 0.035 | 5.55e-07 | 4.88e-07 | 850.14 | 834.84
x1 = 0.0835 | 5.49e-07 | 4.83e-07 | 851.29 | 835.54
x1 = 0.1742 | 5.38e-07 | 4.74e-07 | 853.4 | 837.42
x1 = 0.2553 | 5.29e-07 | 4.65e-07 | 854.9 | 839.1
x1 = 0.3568 | 5.17e-07 | 4.56e-07 | 857.12 | 840.87
x1 = 0.4555 | 5.05e-07 | 4.46e-07 | 858.75 | 842.26
x1 = 0.5396 | 4.96e-07 | 4.38e-07 | 860.37 | 843.91
x1 = 0.697 | 4.81e-07 | 4.24e-07 | 863.09 | 846.32
x1 = 0.797 | 4.71e-07 | 4.15e-07 | 864.45 | 847.77
x1 = 0.8975 | 4.63e-07 | 4.06e-07 | 866.03 | 848.87
x1 = 0.9487 | 4.58e-07 | 4.01e-07 | 866.65 | 849.41
x1 = 1 | 4.54e-07 | 3.97e-07 | 867.31 | 850.23

CC(C)CO [2-methyl-1-propanol]
[1]
Settings | kinematic viscosity [m2/s] | mass density [kg/m3]
298.15 K | 4.25e-06 | 797.71
313.15 K | 2.74e-06 | 785.89

CC(C)CO [2-methyl-1-propanol] + CC1CCCO1
[2], x1 = 1
Settings | kinematic viscosity [m2/s] | mass density [kg/m3]
298.15 K | 4.25e-06 | 797.71
313.15 K | 2.74e-06 | 785.89

CC(C)(C)O [2-methylpropan-2-ol]
[1]
Settings | kinematic viscosity [m2/s] | mass density [kg/m3]
298.15 K | 5.59e-06 | 780.67
313.15 K | 2.74e-06 | 765.33

CC(C)(C)O [2-methylpropan-2-ol] + CC1CCCO1
[2], x1 = 1
Settings | kinematic viscosity [m2/s] | mass density [kg/m3]
298.15 K | 5.59e-06 | 780.67
313.15 K | 2.74e-06 | 765.33

CC1CCCO1 (configuration not stated) [2-methyltetrahydrofuran]
[1]
Settings | kinematic viscosity [m2/s] | mass density [kg/m3]
298.15 K | 5.59e-07 | 849.28
313.15 K | 4.92e-07 | 834.01

CC1CCCO1 (configuration not stated) [2-methyltetrahydrofuran] + CC(C)(C)Cl
[2], 298.15 K, x2 = 0
Settings | kinematic viscosity [m2/s] | mass density [kg/m3]
– | 5.59e-07 | 849.28

CC1CCCO1 (configuration not stated) [2-methyltetrahydrofuran] + CC(C)(C)O
[2]
Settings | kinematic viscosity, 298.15 K [m2/s] | kinematic viscosity, 313.15 K [m2/s] | mass density, 298.15 K [kg/m3] | mass density, 313.15 K [kg/m3]
x2 = 0 | 5.59e-07 | 4.92e-07 | 849.28 | 834.01
x2 = 0.038 | 5.81e-07 | 5.04e-07 | 846.42 | 831.02
x2 = 0.0906 | 6.07e-07 | 5.27e-07 | 842.39 | 826.98
x2 = 0.191 | 6.72e-07 | 5.73e-07 | 835.27 | 819.77
x2 = 0.3192 | 7.79e-07 | 6.49e-07 | 826.46 | 811.22
x2 = 0.3935 | 8.66e-07 | 7.06e-07 | 821.4 | 806.46
x2 = 0.4981 | 1.03e-06 | 8.15e-07 | 814.49 | 799.58
x2 = 0.5918 | 1.25e-06 | 9.49e-07 | 808.4 | 793.51
x2 = 0.6972 | 1.67e-06 | 1.17e-06 | 801.38 | 786.72
x2 = 0.7952 | 2.2e-06 | 1.47e-06 | 795.17 | 780.27
x2 = 0.8989 | 3.34e-06 | 1.97e-06 | 788.08 | 773.14
x2 = 0.9532 | 4.37e-06 | 2.35e-06 | 784.19 | 769.08

CC1CCCO1 (configuration not stated) [2-methyltetrahydrofuran] + CC(C)CCl
[2], x2 = 0
Settings | kinematic viscosity [m2/s] | mass density [kg/m3]
298.15 K | 5.59e-07 | 849.28
313.15 K | 4.92e-07 | 834.01
